Where a name gives a salt, the structure may show the parent alone.
Legend:
[1] = In-vitro dissolution, 900 ml medium (0.1N HCl, pH 4.5 acetate buffer, pH 6.8 or pH 7.5 phosphate buffer), USP Apparatus 1, 75 rpm, 37° C.; assay type: physicochemical
Protocol: The dissolution profile of the above pharmaceutical composition was determined under the dissolution conditions described below in Tables 1A, 1B, and 1C.

[2] = Solubility (37° C.) in 0.1N HCl, pH 4.5, pH 6.8; assay type: physicochemical; set-up: Solubility (37° C.): unit not given here; details: hydrobromide

CC(NC(C)(C)C)C(=O)c1cccc(Cl)c1 (stereo not shown) [Bupropion HBr, bupropion hydrobromide]
% Released ([1]; Example 1 tablet, 0.1N HCl, 1 hr): 12%
% Released ([1]; Example 1 tablet, 0.1N HCl, 2 hr): 29%
% Released ([1]; Example 1 tablet, 0.1N HCl, 3 hr): 45%
% Released ([1]; Example 1 tablet, 0.1N HCl, 4 hr): 59%
% Released ([1]; Example 1 tablet, 0.1N HCl, 5 hr): 73%
% Released ([1]; Example 1 tablet, 0.1N HCl, 6 hr): 84%
% Released ([1]; Example 1 tablet, 0.1N HCl, 7 hr): 93%
% Released ([1]; Example 1 tablet, 0.1N HCl, 8 hr): 100%
% Released ([1]; Example 1 tablet, 0.1N HCl, 9 hr): 103%
% Released ([1]; Example 1 tablet, 0.1N HCl, 10 hr): 104%
% Released ([1]; Example 1 tablet, 0.1N HCl, 11 hr): 104%
% Released ([1]; Example 1 tablet, 0.1N HCl, 12 hr): 104%
% Released ([1]; Example 1 tablet, 0.1N HCl, 13 hr): 103%
% Released ([1]; Example 1 tablet, 0.1N HCl, 14 hr): 103%
% Released ([1]; Example 1 tablet, pH 4.5 acetate buffer, 1 hr): 12%
% Released ([1]; Example 1 tablet, pH 4.5 acetate buffer, 2 hr): 28%
% Released ([1]; Example 1 tablet, pH 4.5 acetate buffer, 3 hr): 43%
% Released ([1]; Example 1 tablet, pH 4.5 acetate buffer, 4 hr): 57%
% Released ([1]; Example 1 tablet, pH 4.5 acetate buffer, 5 hr): 70%
% Released ([1]; Example 1 tablet, pH 4.5 acetate buffer, 6 hr): 81%
% Released ([1]; Example 1 tablet, pH 4.5 acetate buffer, 7 hr): 91%
% Released ([1]; Example 1 tablet, pH 4.5 acetate buffer, 8 hr): 98%
% Released ([1]; Example 1 tablet, pH 4.5 acetate buffer, 9 hr): 103%
% Released ([1]; Example 1 tablet, pH 4.5 acetate buffer, 10 hr): 105%
% Released ([1]; Example 1 tablet, pH 4.5 acetate buffer, 11 hr): 106%
% Released ([1]; Example 1 tablet, pH 4.5 acetate buffer, 12 hr): 106%
% Released ([1]; Example 1 tablet, pH 4.5 acetate buffer, 13 hr): 106%
% Released ([1]; Example 1 tablet, pH 4.5 acetate buffer, 14 hr): 106%
% Released ([1]; Example 1 tablet, pH 4.5 acetate buffer, 15 hr): 105%
% Released ([1]; Example 1 tablet, pH 4.5 acetate buffer, 16 hr): 105%
% Released ([1]; Example 1 tablet, pH 6.8 phosphate buffer, 1 hr): 12%
% Released ([1]; Example 1 tablet, pH 6.8 phosphate buffer, 2 hr): 27%
% Released ([1]; Example 1 tablet, pH 6.8 phosphate buffer, 3 hr): 42%
% Released ([1]; Example 1 tablet, pH 6.8 phosphate buffer, 4 hr): 56%
% Released ([1]; Example 1 tablet, pH 6.8 phosphate buffer, 5 hr): 69%
% Released ([1]; Example 1 tablet, pH 6.8 phosphate buffer, 6 hr): 80%
% Released ([1]; Example 1 tablet, pH 6.8 phosphate buffer, 7 hr): 88%
% Released ([1]; Example 1 tablet, pH 6.8 phosphate buffer, 8 hr): 95%
% Released ([1]; Example 1 tablet, pH 6.8 phosphate buffer, 9 hr): 98%
% Released ([1]; Example 1 tablet, pH 6.8 phosphate buffer, 10 hr): 100%
% Released ([1]; Example 1 tablet, pH 6.8 phosphate buffer, 11 hr): 100%
% Released ([1]; Example 1 tablet, pH 6.8 phosphate buffer, 12 hr): 100%
% Released ([1]; Example 1 tablet, pH 6.8 phosphate buffer, 13 hr): 101%
% Released ([1]; Example 1 tablet, pH 6.8 phosphate buffer, 14 hr): 100%
% Released ([1]; Example 1 tablet, pH 6.8 phosphate buffer, 15 hr): 99%
% Released ([1]; Example 1 tablet, pH 6.8 phosphate buffer, 16 hr): 99%
% Released ([1]; Example 2 tablet, 0.1N HCl, 1 hr): 12%
% Released ([1]; Example 2 tablet, 0.1N HCl, 2 hr): 29%
% Released ([1]; Example 2 tablet, 0.1N HCl, 4 hr): 61%
% Released ([1]; Example 2 tablet, 0.1N HCl, 8 hr): 100%
% Released ([1]; Example 2 tablet, 0.1N HCl, 12 hr): 103%
% Released ([1]; Example 2 tablet, pH 4.5 acetate buffer, 1 hr): 12%
% Released ([1]; Example 2 tablet, pH 4.5 acetate buffer, 2 hr): 28%
% Released ([1]; Example 2 tablet, pH 4.5 acetate buffer, 4 hr): 57%
% Released ([1]; Example 2 tablet, pH 4.5 acetate buffer, 8 hr): 97%
% Released ([1]; Example 2 tablet, pH 4.5 acetate buffer, 16 hr): 101%
% Released ([1]; Example 2 tablet, pH 6.8 phosphate buffer, 1 hr): 11%
% Released ([1]; Example 2 tablet, pH 6.8 phosphate buffer, 2 hr): 27%
% Released ([1]; Example 2 tablet, pH 6.8 phosphate buffer, 4 hr): 55%
% Released ([1]; Example 2 tablet, pH 6.8 phosphate buffer, 8 hr): 94%
% Released ([1]; Example 2 tablet, pH 6.8 phosphate buffer, 12 hr): 97%
% Released ([1]; Example 2 tablet, pH 6.8 phosphate buffer, 16 hr): 96%
% Released ([1]; Example 3 tablet, 0.1N HCl, 1 hr): 13%
% Released ([1]; Example 3 tablet, 0.1N HCl, 2 hr): 31%
% Released ([1]; Example 3 tablet, 0.1N HCl, 4 hr): 62%
% Released ([1]; Example 3 tablet, 0.1N HCl, 12 hr): 104%
% Released ([1]; Example 3 tablet, 0.1N HCl, 16 hr): 103%
% Released ([1]; Example 3 tablet, pH 4.5 acetate buffer, 1 hr): 12%
% Released ([1]; Example 3 tablet, pH 4.5 acetate buffer, 2 hr): 28%
% Released ([1]; Example 3 tablet, pH 4.5 acetate buffer, 4 hr): 58%
% Released ([1]; Example 3 tablet, pH 4.5 acetate buffer, 8 hr): 99%
% Released ([1]; Example 3 tablet, pH 4.5 acetate buffer, 12 hr): 103%
% Released ([1]; Example 3 tablet, pH 6.8 phosphate buffer, 1 hr): 11%
% Released ([1]; Example 3 tablet, pH 6.8 phosphate buffer, 2 hr): 27%
% Released ([1]; Example 3 tablet, pH 6.8 phosphate buffer, 4 hr): 57%
% Released ([1]; Example 3 tablet, pH 6.8 phosphate buffer, 8 hr): 98%
% Released ([1]; Example 3 tablet, pH 6.8 phosphate buffer, 12 hr): 100%
% Released ([1]; Example 3 tablet, pH 6.8 phosphate buffer, 16 hr): 99%
% Released ([1]; Example 4 tablet, 0.1N HCl, 1 hr): 11%
% Released ([1]; Example 4 tablet, 0.1N HCl, 2 hr): 27%
% Released ([1]; Example 4 tablet, 0.1N HCl, 4 hr): 56%
% Released ([1]; Example 4 tablet, 0.1N HCl, 8 hr): 97%
% Released ([1]; Example 4 tablet, 0.1N HCl, 12 hr): 105%
% Released ([1]; Example 4 tablet, 0.1N HCl, 16 hr): 103%
% Released ([1]; Example 5 tablet, 0.1N HCl, 1 hr): 9%
% Released ([1]; Example 5 tablet, 0.1N HCl, 2 hr): 20%
% Released ([1]; Example 5 tablet, 0.1N HCl, 4 hr): 43%
% Released ([1]; Example 5 tablet, 0.1N HCl, 8 hr): 82%
% Released ([1]; Example 5 tablet, 0.1N HCl, 12 hr): 98%
% Released ([1]; Example 5 tablet, 0.1N HCl, 16 hr): 99%
% Released ([1]; Example 6 tablet, 0.1N HCl, 1 hr): 13%
% Released ([1]; Example 6 tablet, 0.1N HCl, 2 hr): 30%
% Released ([1]; Example 6 tablet, 0.1N HCl, 4 hr): 61%
% Released ([1]; Example 6 tablet, 0.1N HCl, 8 hr): 98%
% Released ([1]; Example 6 tablet, 0.1N HCl, 12 hr): 100%
% Released ([1]; Example 6 tablet, 0.1N HCl, 16 hr): 100%
% Released ([1]; Example 7 tablet, 0.1N HCl, 1 hr): 2%
% Released ([1]; Example 7 tablet, 0.1N HCl, 8 hr): 36%
% Released ([1]; Example 7 tablet, 0.1N HCl, 12 hr): 57%
% Released ([1]; Example 7 tablet, 0.1N HCl, 16 hr): 74%
Solubility (37° C.) ([2]; 0.1N HCl): 190
Solubility (37° C.) ([2]; pH 4.5): 180
Solubility (37° C.) ([2]; pH 6.8): 200

Source: US20090246276A1, “Pharmaceutical Compositions” (priority 2008, published 2009)
